In the supplement of paper PMC10307832:

What was measured:
Experiment in all cases: relative viability (nuclei count vs DMSO), 5 days (fraction); higher = more cells survive
SK-LU-1 = tested on: SK-LU-1
How it was run: (§1)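 Lung cancer cell lines in 1536-well plates were dosed by pin tool the day after seeding, either with one drug alone or with a fixed anchor-drug dose plus five library-drug doses (not always all listed) in √10 steps. After 5 days, cells were fixed and their nuclei stained in one step (final 0.05% Triton X-100, 1% formaldehyde, 1 ug/ml Hoechst), then counted on 4× images. Relative viability is the nuclei count in treated wells divided by that in vehicle wells. Values are medians of duplicate plates.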

Calu-6 = tested on: Calu-6
How it was run: as §1

NCI-H1666 = tested on: NCI-H1666
How it was run: as §1

IA-LM = tested on: IA-LM
How it was run: as §1

PC-14 = tested on: PC-14
How it was run: as §1

EBC-1 = tested on: EBC-1
How it was run: as §1

NCI-H1703 = tested on: NCI-H1703
How it was run: as §1

NCI-H1944 = tested on: NCI-H1944
How it was run: as §1

A549 = tested on: A549
How it was run: as §1

NCI-H661 = tested on: NCI-H661
How it was run: as §1

NCI-H596 = tested on: NCI-H596
How it was run: as §1

NCI-H1299 = tested on: NCI-H1299
How it was run: as §1

Work on `Cc1csc(=NC2CCCCC2)n1/N=C/c1ccc(O)c(O)c1O` [MIM1] + C[C@@H](Oc1cc(-c2cnn(C3CCNCC3)c2)cnc1N)c1c(Cl)ccc(F)c1Cl [Crizotinib] (partner 1 µM) yielded a relative viability (SK-LU-1; first compound 0.2 µM) of 1.02, a relative viability (SK-LU-1; first compound 0.6325 µM) of 0.895 and a relative viability (SK-LU-1; first compound 2 µM) of 1.07. For the same compound, the relative viability (SK-LU-1; first compound 6.325 µM) was 0.815, the relative viability (SK-LU-1; first compound 20 µM) was 0.843 and the relative viability (Calu-6; first compound 0.2 µM) was 0.785. The relative viability (Calu-6; first compound 0.6325 µM) was 0.826, the relative viability (Calu-6; first compound 2 µM) was 0.696 and the relative viability (Calu-6; first compound 6.325 µM) was 0.36. For the same compound, the relative viability (Calu-6; first compound 20 µM) was 0.186, the relative viability (NCI-H1666; first compound 0.2 µM) was 0.926 and the relative viability (NCI-H1666; first compound 0.6325 µM) was 0.92. The relative viability (NCI-H1666; first compound 2 µM) was 0.958, the relative viability (NCI-H1666; first compound 6.325 µM) was 0.663 and the relative viability (NCI-H1666; first compound 20 µM) was 0.238. The relative viability (IA-LM; first compound 0.2 µM) was 0.697, the relative viability (IA-LM; first compound 0.6325 µM) was 0.789 and the relative viability (IA-LM; first compound 2 µM) was 0.773. For the same compound, the relative viability (IA-LM; first compound 6.325 µM) was 0.443, the relative viability (IA-LM; first compound 20 µM) was 0.204 and the relative viability (PC-14; first compound 0.2 µM) was 0.854. It also gave a relative viability (PC-14; first compound 0.6325 µM) of 0.839, a relative viability (PC-14; first compound 2 µM) of 0.873 and a relative viability (PC-14; first compound 6.325 µM) of 0.728. For the same compound, the relative viability (PC-14; first compound 20 µM) was 0.254, the relative viability (EBC-1; first compound 0.2 µM) was 0.207 and the relative viability (EBC-1; first compound 0.6325 µM) was 0.196. For the same compound, the relative viability (EBC-1; first compound 2 µM) was 0.195, the relative viability (EBC-1; first compound 6.325 µM) was 0.196 and the relative viability (EBC-1; first compound 20 µM) was 0.227. For the same compound, the relative viability (NCI-H1703; first compound 0.2 µM) was 0.534, the relative viability (NCI-H1703; first compound 0.6325 µM) was 0.482 and the relative viability (NCI-H1703; first compound 2 µM) was 0.455. For the same compound, the relative viability (NCI-H1703; first compound 6.325 µM) was 0.175, the relative viability (NCI-H1703; first compound 20 µM) was 0.127 and the relative viability (NCI-H1944; first compound 0.2 µM) was 1.11. It also gave a relative viability (NCI-H1944; first compound 0.6325 µM) of 1.09, a relative viability (NCI-H1944; first compound 2 µM) of 0.754 and a relative viability (NCI-H1944; first compound 6.325 µM) of 0.811. It also gave a relative viability (NCI-H1944; first compound 20 µM) of 0.323, a relative viability (A549; first compound 0.2 µM) of 0.709 and a relative viability (A549; first compound 0.6325 µM) of 0.715. It also gave a relative viability (A549; first compound 2 µM) of 0.762, a relative viability (A549; first compound 6.325 µM) of 0.402 and a relative viability (A549; first compound 20 µM) of 0.227. It also gave a relative viability (NCI-H661; first compound 0.2 µM) of 0.973, a relative viability (NCI-H661; first compound 0.6325 µM) of 0.953 and a relative viability (NCI-H661; first compound 2 µM) of 0.875. For the same compound, the relative viability (NCI-H661; first compound 6.325 µM) was 0.677, the relative viability (NCI-H661; first compound 20 µM) was 0.531 and the relative viability (NCI-H596; first compound 0.2 µM) was 0.965. For the same compound, the relative viability (NCI-H596; first compound 0.6325 µM) was 1.11, the relative viability (NCI-H596; first compound 2 µM) was 0.832 and the relative viability (NCI-H596; first compound 6.325 µM) was 0.921. For the same compound, the relative viability (NCI-H596; first compound 20 µM) was 0.741, the relative viability (NCI-H1299; first compound 0.2 µM) was 0.857 and the relative viability (NCI-H1299; first compound 0.6325 µM) was 0.975. For the same compound, the relative viability (NCI-H1299; first compound 2 µM) was 0.975, the relative viability (NCI-H1299; first compound 6.325 µM) was 0.966 and the relative viability (NCI-H1299; first compound 20 µM) was 0.904.
`Cc1csc(=NC2CCCCC2)n1/N=C/c1ccc(O)c(O)c1O` [MIM1] + C[C@]1(O)C[C@@H](c2nc(-c3ccc4ccc(-c5ccccc5)nc4c3)c3c(N)nccn32)C1 [Linsitinib] (partner 1 µM) gave a relative viability (SK-LU-1; first compound 0.2 µM) of 1.12, a relative viability (SK-LU-1; first compound 0.6325 µM) of 1.26 and a relative viability (SK-LU-1; first compound 2 µM) of 1.29. The relative viability (SK-LU-1; first compound 6.325 µM) was 1.03, the relative viability (SK-LU-1; first compound 20 µM) was 0.996 and the relative viability (Calu-6; first compound 0.6325 µM) was 0.918. It also gave a relative viability (Calu-6; first compound 2 µM) of 0.897, a relative viability (Calu-6; first compound 6.325 µM) of 0.561 and a relative viability (Calu-6; first compound 20 µM) of 0.286. The relative viability (NCI-H1666; first compound 0.2 µM) was 0.791, the relative viability (NCI-H1666; first compound 0.6325 µM) was 0.753 and the relative viability (NCI-H1666; first compound 2 µM) was 0.732. The relative viability (NCI-H1666; first compound 6.325 µM) was 0.606, the relative viability (NCI-H1666; first compound 20 µM) was 0.526 and the relative viability (IA-LM; first compound 0.2 µM) was 0.563. For the same compound, the relative viability (IA-LM; first compound 0.6325 µM) was 0.36, the relative viability (IA-LM; first compound 2 µM) was 0.502 and the relative viability (IA-LM; first compound 6.325 µM) was 0.0829. For the same compound, the relative viability (IA-LM; first compound 20 µM) was 0.105, the relative viability (PC-14; first compound 0.2 µM) was 0.893 and the relative viability (PC-14; first compound 0.6325 µM) was 0.932. For the same compound, the relative viability (PC-14; first compound 2 µM) was 0.956, the relative viability (PC-14; first compound 6.325 µM) was 0.719 and the relative viability (PC-14; first compound 20 µM) was 0.499. It also gave a relative viability (EBC-1; first compound 0.2 µM) of 0.921, a relative viability (EBC-1; first compound 0.6325 µM) of 0.829 and a relative viability (EBC-1; first compound 2 µM) of 0.871. For the same compound, the relative viability (EBC-1; first compound 6.325 µM) was 0.605, the relative viability (EBC-1; first compound 20 µM) was 0.318 and the relative viability (NCI-H1703; first compound 0.2 µM) was 0.759. It also gave a relative viability (NCI-H1703; first compound 0.6325 µM) of 1.31, a relative viability (NCI-H1703; first compound 2 µM) of 0.701 and a relative viability (NCI-H1703; first compound 6.325 µM) of 0.144. The relative viability (NCI-H1703; first compound 20 µM) was 0.095, the relative viability (NCI-H1944; first compound 0.2 µM) was 1.12 and the relative viability (NCI-H1944; first compound 0.6325 µM) was 1.13. For the same compound, the relative viability (NCI-H1944; first compound 2 µM) was 0.923, the relative viability (NCI-H1944; first compound 6.325 µM) was 1 and the relative viability (NCI-H1944; first compound 20 µM) was 1.46. It also gave a relative viability (A549; first compound 0.2 µM) of 0.564, a relative viability (A549; first compound 0.6325 µM) of 0.638 and a relative viability (A549; first compound 2 µM) of 0.618. The relative viability (A549; first compound 6.325 µM) was 0.504, the relative viability (A549; first compound 20 µM) was 0.515 and the relative viability (NCI-H661; first compound 0.2 µM) was 0.575. The relative viability (NCI-H661; first compound 0.6325 µM) was 0.737, the relative viability (NCI-H661; first compound 2 µM) was 0.547 and the relative viability (NCI-H661; first compound 6.325 µM) was 0.449. For the same compound, the relative viability (NCI-H661; first compound 20 µM) was 0.255, the relative viability (NCI-H596; first compound 0.2 µM) was 0.989 and the relative viability (NCI-H596; first compound 0.6325 µM) was 0.989. For the same compound, the relative viability (NCI-H596; first compound 2 µM) was 0.991, the relative viability (NCI-H596; first compound 6.325 µM) was 0.857 and the relative viability (NCI-H596; first compound 20 µM) was 0.871. It also gave a relative viability (NCI-H1299; first compound 0.2 µM) of 0.98, a relative viability (NCI-H1299; first compound 0.6325 µM) of 0.93 and a relative viability (NCI-H1299; first compound 2 µM) of 0.963. For the same compound, the relative viability (NCI-H1299; first compound 6.325 µM) was 0.919 and the relative viability (NCI-H1299; first compound 20 µM) was 0.667.
